Here are results for five compounds from EP2711009A1, “Compounds for use in treating or preventing primary and metastatic breast and prostate cancer” (Institut Univ. de Ciència i Tecnologia, S.A., priority 2012, dated 2014).

What all share (assay type): cell-based
In assay [1] the test system is MDA-MB-231(SA) breast cancer cells. Description: WST-1 tetrazolium dye proliferation assay, MDA-MB-231(SA). As to conditions: for inhibition at 1 µM: Homo sapiens, read-out: proliferation inhibitory effect compared with 0.1% DMSO vehicle control group; for proliferation inhibitory effect compared with Gemcitabine: relative to Gemcitabine (= 0), negative = less inhibition than Gemcitabine. The procedure:
(§1) Determination of the ability of compound of formula (I) and combinations between compound of formula (I) and certain therapeutic compounds described herein to inhibit the proliferation of target cells was assayed in vitro against breast and prostate tumour cells.
(§2) MCF-7 and LNCaP cells were purchased from ATCC. MDA-MB-231(SA) cells were obtained from Professor Theresa Guise. PNT1A cells were purchased from ECACC. The cells were grown in a subconfluent condition to maintain a logarithmic growth phase. The cells were dislodged for passage using trypsin-EDTA.
(§3) The proliferation of the cell lines was evaluated by using the commercial WST-1 proliferation measurement reagent. Cells from exponentially growing cultures were plated on the 96 well plates at the appropriate seeding density in the optimal medium to give logarithmic growth over the course of the assay. The plates with MCF-7, MDA-MB-231(SA), PC3M and PNT1A cells were incubated 24h at 37°C in a humidified CO2 atmosphere to allow for recovery from trypsinization before adding of test and control compounds. 1mM stock solutions were prepared from test compounds in DMSO (dimethylsulfoxide) and stored at -20°C. Control compounds Ara-C and Gemcitabine stock solutions were prepared in sterile water. Each test and control compound was diluted twice the final concentration in appropriate media. Half of the final well volume of each dilution was added in six parallels to plates containing cells. Required volume of DMSO was added into the vehicle and control compound dilutions to achieve the final concentration of 0.1% DMSO in all control and test compound wells. The plates were returned to 37°C in a humified CO2 atmosphere and incubated for 5 days. WST-1 reagent (2-(4-Iodophenyl)-3-(4-nitrophenyl)-5-(2,4-disulfophenyl)-2H-tetrazolium) was added to each well according manufacturer's instructions and the plates were returned to 37°C in a humidified CO2 atmosphere for 2 hours. Following incubation the absorbance at a wavelength of 450nm was measured from each well using a multilabel counter. The absorbance at wavelength 450nm correlates linearly to number of viable cells in the well.
(§4) The means and standard deviations for parallel samples were calculated and plotted as a graph.

Assay [2] relates to PC3M prostate cancer cells. Description: WST-1 tetrazolium dye proliferation assay, PC3M. Conditions: for inhibition at 1 µM: Homo sapiens, PC-3M, 120 h, read-out: proliferation inhibitory effect compared with 0.1% DMSO vehicle control group; for proliferation inhibitory effect compared with Gemcitabine: relative to Gemcitabine (= 0). On the procedure:
as §1, §2, §3, §4
(Formazan colour is commonly taken as a measure of viable cells.)

Assay [3] relates to PNT1A immortalized normal prostate cells. Description: WST-1 tetrazolium dye proliferation assay, PNT1A normal cells. As to conditions: Homo sapiens, 120 h, read-out: proliferation inhibitory effect compared with 0.1% DMSO vehicle control group. The procedure: as §1, §2, §3, §4
The next assay concerns pancreatic cancer cells. Description: Effect on pancreatic cancer cells (no method given). Conditions: other type of cancer cells such as pancreatic cancer cells.
Where [4] appears, read: PNT1A immortalized normal prostate cell line, 5 days incubation, mean±SD, concentration not given (primary screen 1 microM).

Where two headings read alike, the source gives them in different places.

Regarding `Nc1ccn([C@@H]2O[C@H](CO)[C@@H](O)[C@@H]2O)c(=O)n1` [Ara-C], the inhibition at 1 µM was 80.4 ± 2.5% in assay [1] (MDA-MB-231, 120 h); 72.6 ± 3.5% in assay [2]; 66.5 ± 1.8% in assay [3] (setting [4]).
`Nc1ncnc2[nH]ncc12` [Compound A, 4-Aminopyrazolo[3,4-d]pyrimidine]: in assay [2] (PC3M), the “proliferation inhibitory effect compared with Gemcitabine” value is 70.1±2.7%.
As to `CCSc1ncnc2c1ncn2[C@@H]1O[C@H](CO)[C@@H](O)[C@H]1O` [Compound I, 6-(Ethylthio)inosine], the inhibition at 1 µM worked out at 93.4 ± 1.3% in assay [1] (MDA-MB-231, 120 h); 73.6 ± 5.5% in assay [2]; 26.2 ± 7.7% in assay [3] (PNT1A). The “proliferation inhibitory effect compared with Gemcitabine” value in assay [1] (MDA-MB-231(SA)) is 11.7±18.0%; in assay [2] (PC3M) it was 26.6±15.4%. Besides, the “effect on pancreatic cancer cells” value with pancreatic cancer cells is reported as “no effect was detected”.
Take `O=c1[nH]c(=O)n([C@H]2C[C@H](O)[C@@H](CO)O2)cc1F` [Floxuridine]: the inhibition at 1 µM in assay [1] (120 h, MDA-MB-231(SA), 5 days incubation, mean±SD, concentration not given (primary screen 1 microM)) worked out at 82.4 ± 2.6%; in assay [2] (PC3M, 5 days incubation, mean±SD, concentration not given (primary screen 1 microM)), 78 ± 3.4%; in assay [3] (setting [4]), 88.3 ± 0.6%. The “proliferation inhibitory effect compared with Gemcitabine” value is recorded as -136.4±34.6% in assay [1] (MDA-MB-231(SA)) and 38.9±9.5% in assay [2] (PC3M).
With `Nc1ccn([C@@H]2O[C@H](CO)[C@@H](O)C2(F)F)c(=O)n1` [Gemcitabine, 2',2'-difluorodeoxycytidine], the inhibition at 1 µM was 93.3 ± 0.9% in assay [1] (MDA-MB-231, 120 h); 67.5 ± 7.2% in assay [2]; 98.8 ± 0.3% in assay [3] (setting [4]). Further, the “proliferation inhibitory effect compared with Gemcitabine” value in assay [1] (MDA-MB-231(SA)) and in assay [2] (PC3M) was 0% throughout.
